Values joined by “and” are separate entries in the source; they are usually repeats but may differ in a detail not shown here. Identical values can stand only once. Like-named read-outs stand apart in the source and are kept apart here.
Key:
Hepatitis B virus [1] = experiment: Inhibition of HBV replication in transfected HepG-2 (2.2.15) cells (HBV virion DNA and replicative intermediates, blot hybridization); assay type: cell-based; conditions: for Inhibition of HBV replication (depression of HBV virion DNA and HBV RI), in words: 2.2.15 cells; for Selectivity Index IC50/EC90 RI: cytotoxicity IC50 / RI EC90
Experimental: The assay used herein to evaluate the ability of the disclosed compounds to inhibit the replication of HBV is described in detail in Korba and Gerin, Antiviral Res. 19: 55-70 (1992). […] The toxicity and anti-HBV activity of (−)-β-L-2-hydroxymethyl-5-(5-fluorocytosin-1-yl)-1,3-oxathiolane ((−)-β-L-FTC) and β-D-2′,3′-dideoxycytidine (β-D-ddC) are included as controls. The other compounds disclosed herein can be evaluated similarly.
The antiviral evaluations were performed on two separate passages of cells, two cultures per passage (4 cultures total). All wells, in all plates, were seeded at the same density and at the same time.
(Korba and Gerin, Antiviral Res. 19: 55-70, 1992). The levels of integrated HBV DNA in each cellular DNA preparation (which remain constant on a per cell basis in these experiments) were used to calculate the levels of intracellular HBV DNA forms, thereby eliminating technical variations inherent in the blot hybridization assays.
(§1) Toxicity analyses were performed in order to assess whether any observed antiviral effects were due to a general effect on cell viability. The method used was based on the uptake of neutral red dye, a standard and widely used assay for cell viability in a variety of virus-host systems, including HSV (herpes simplex virus) and HIV. The test compounds were used in the form of 40 mM stock solutions in DMSO (frozen on dry ice). Daily aliquots of the test samples were made and frozen at −20° C. so that each individual aliquot would be subjected to a single freeze-thaw cycle. The daily test aliquots were thawed, suspended into culture medium at room temperature and immediately added to the cell cultures. The compounds were tested at 0.01 to 10 μM for antiviral activity. The compounds were tested for toxicity at concentrations from 1 to 300 μM.

[2] = Toxicity analysis by uptake of neutral red dye in 2.2.15 cell cultures; conditions: human
Experimental: as §1
(§2) Toxicity analyses were performed in 96-well flat bottomed tissue culture plates. Cells for the toxicity analyses were cultured and treated with test compounds with the same schedule as used for the antiviral evaluations. Each compound was tested at 4 concentrations, each in triplicate cultures. Uptake of neutral red dye was used to determine the relative level of toxicity. The absorbance of internalized dye at […] (A510) was used for the quantitative analysis. Values are presented as a percentage of the average A510 values (± standard deviations) in 9 separate cultures of untreated cells maintained on the same 96-well plate as the test compounds.

[3] = molecular target: woodchuck hepatitis virus DNA polymerase (Woodchuck hepatitis B virus, UniProt P03160); experiment: Inhibition of woodchuck hepatitis virus DNA polymerase by triphosphates; assay type: biochemical; conditions: read-out: WHB DNA Pol IC50
Chain of woodchuck hepatitis virus DNA polymerase (P03160 whole entry): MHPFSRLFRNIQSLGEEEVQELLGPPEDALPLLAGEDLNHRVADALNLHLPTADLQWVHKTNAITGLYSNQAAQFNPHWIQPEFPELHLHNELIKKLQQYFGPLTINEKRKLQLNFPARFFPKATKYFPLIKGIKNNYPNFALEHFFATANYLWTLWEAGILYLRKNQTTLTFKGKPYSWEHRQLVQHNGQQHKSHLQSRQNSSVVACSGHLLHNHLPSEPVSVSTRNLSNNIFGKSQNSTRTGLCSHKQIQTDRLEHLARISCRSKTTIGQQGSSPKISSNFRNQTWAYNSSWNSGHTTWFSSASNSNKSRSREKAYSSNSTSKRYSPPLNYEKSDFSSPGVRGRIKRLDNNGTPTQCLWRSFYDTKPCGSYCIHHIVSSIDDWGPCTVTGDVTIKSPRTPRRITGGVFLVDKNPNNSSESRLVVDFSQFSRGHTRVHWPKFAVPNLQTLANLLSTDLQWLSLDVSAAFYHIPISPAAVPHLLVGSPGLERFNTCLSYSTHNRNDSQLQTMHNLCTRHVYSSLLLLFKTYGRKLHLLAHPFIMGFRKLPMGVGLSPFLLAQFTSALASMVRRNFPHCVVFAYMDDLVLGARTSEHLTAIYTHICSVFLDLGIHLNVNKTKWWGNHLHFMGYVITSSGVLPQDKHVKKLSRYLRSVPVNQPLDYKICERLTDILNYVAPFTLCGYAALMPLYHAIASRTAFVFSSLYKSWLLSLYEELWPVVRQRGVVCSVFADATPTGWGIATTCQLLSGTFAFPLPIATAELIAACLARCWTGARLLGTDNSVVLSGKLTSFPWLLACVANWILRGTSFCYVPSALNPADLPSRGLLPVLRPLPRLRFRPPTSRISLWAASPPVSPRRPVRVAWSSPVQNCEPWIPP

human DNA polymerase β = human DNA polymerase β (Homo sapiens, UniProt P06746); experiment: Inhibition of human DNA polymerase β by triphosphates; assay type: biochemical; conditions: read-out: DNA Pol β Ki
human DNA polymerase α = molecular target: T1, human DNA polymerase α (Homo sapiens, UniProt P09884); experiment: Inhibition of human DNA polymerase α by triphosphates; assay type: biochemical; conditions: read-out: DNA Pol α Ki
T1 sequence (P09884 1-1462): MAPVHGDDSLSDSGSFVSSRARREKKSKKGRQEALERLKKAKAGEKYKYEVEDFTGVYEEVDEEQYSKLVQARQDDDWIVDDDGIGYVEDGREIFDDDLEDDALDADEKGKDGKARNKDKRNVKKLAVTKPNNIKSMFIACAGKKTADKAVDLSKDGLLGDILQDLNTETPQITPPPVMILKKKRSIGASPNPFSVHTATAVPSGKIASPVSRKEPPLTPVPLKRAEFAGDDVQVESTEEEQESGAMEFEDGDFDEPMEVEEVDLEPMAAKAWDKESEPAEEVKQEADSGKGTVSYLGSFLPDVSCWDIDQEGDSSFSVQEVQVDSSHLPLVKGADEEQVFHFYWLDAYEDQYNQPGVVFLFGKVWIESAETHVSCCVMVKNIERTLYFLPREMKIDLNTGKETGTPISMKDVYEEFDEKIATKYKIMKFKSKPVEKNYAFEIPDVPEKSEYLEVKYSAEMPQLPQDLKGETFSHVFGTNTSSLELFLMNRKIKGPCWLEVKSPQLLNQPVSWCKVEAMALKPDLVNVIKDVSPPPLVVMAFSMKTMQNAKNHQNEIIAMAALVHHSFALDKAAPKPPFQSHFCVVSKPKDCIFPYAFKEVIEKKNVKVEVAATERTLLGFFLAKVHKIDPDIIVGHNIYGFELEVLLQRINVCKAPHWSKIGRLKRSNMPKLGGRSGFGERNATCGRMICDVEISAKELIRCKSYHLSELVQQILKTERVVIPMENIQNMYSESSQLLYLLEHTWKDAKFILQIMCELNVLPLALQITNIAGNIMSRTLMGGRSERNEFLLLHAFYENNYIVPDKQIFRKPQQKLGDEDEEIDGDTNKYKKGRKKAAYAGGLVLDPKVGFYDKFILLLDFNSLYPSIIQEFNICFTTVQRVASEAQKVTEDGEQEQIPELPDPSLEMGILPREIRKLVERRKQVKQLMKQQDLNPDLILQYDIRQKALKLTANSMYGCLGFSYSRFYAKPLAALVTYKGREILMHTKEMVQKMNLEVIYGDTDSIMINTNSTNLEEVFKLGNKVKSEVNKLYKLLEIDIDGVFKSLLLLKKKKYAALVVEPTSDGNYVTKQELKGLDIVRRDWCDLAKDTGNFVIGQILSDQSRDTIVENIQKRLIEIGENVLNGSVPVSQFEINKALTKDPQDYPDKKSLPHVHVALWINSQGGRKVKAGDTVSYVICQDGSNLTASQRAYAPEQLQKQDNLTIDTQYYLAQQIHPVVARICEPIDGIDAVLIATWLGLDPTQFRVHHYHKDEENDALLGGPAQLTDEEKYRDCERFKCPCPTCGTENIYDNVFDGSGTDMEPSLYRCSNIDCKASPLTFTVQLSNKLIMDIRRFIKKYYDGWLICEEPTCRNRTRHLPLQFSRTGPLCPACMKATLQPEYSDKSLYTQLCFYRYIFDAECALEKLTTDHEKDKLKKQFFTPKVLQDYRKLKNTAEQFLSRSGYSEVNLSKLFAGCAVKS

[4] = system: 2.2.15 cells (HepG2 cells transformed with hepatitis virion); experiment: Toxicity analysis by uptake of neutral red dye in 2.2.15 cell cultures; conditions: read-out: Cytotoxity IC50 ± SD; Table 1; neutral red dye uptake; 2.2.15 cells
Experimental: as §1, §2

[5] = system: 2.2.15 cells (HepG2 cells transformed with hepatitis virion); conditions: typically observed, Korba and Gerin 1992; read-out: Concentration giving a 2-fold reduction in dye uptake; cited from earlier work
Hepatitis B virus [6] = conditions: previous studies, Korba and Gerin 1992; cited from earlier work

For `Nc1nc(=O)n([C@H]2O[C@@H](CO)C[C@H]2F)cc1F` [2′-F-β-L-5FDDC, 1-(2-Fluoro-2,3-dideoxy-β-L-threo-pentofuranosyl)-5-fluorocytosine], the EC50 (Hepatitis B virus [1]; Hepatitis B virus, HepG2 2.2.15, read-out: HBV RI EC50) was 5 µM, the EC50 (Hepatitis B virus [1]; Hepatitis B virus, HepG2 2.2.15, read-out: HBV Virion EC50) was 1.7 µM and the “Selectivity Index IC50/EC50 RI” value (Hepatitis B virus [1]; Table 2, cytotoxicity IC50 / RI EC50) was 42. The “Selectivity Index IC50/EC50 Virion” value (Hepatitis B virus [1]; Table 2, cytotoxicity IC50 / virion EC50) was 124 and the IC50 [2] was 210 µM.
`Nc1ccn([C@@H]2CS[C@H](COP(=O)(O)OP(=O)(O)OP(=O)(O)O)O2)c(=O)n1` [Compound 3-TC-TP, reference compound] gave an IC50 [3] of 1 µM, a Ki (human DNA polymerase β) greater than 100 µM and a Ki (human DNA polymerase α) greater than 100 µM.
`Nc1ncnc2c1ncn2[C@@H]1CC[C@H](COP(=O)(O)OP(=O)(O)OP(=O)(O)O)O1` [β-L-ddATP] gave an IC50 [3] of 2.1 µM, a Ki (human DNA polymerase β) greater than 100 µM and a Ki (human DNA polymerase α) greater than 100 µM.
For `Cc1cn([C@@H]2CC(N=[N+]=[N-])[C@H](CO)O2)c(=O)[nH]c1=O` (stereo partly drawn) [β-L-AZT, 1-(3-Azido-2-3-dideoxy-β-L-erythro-pentofuranosyl) thymine], the EC50 (Hepatitis B virus [1]; Hepatitis B virus, HepG2 2.2.15, read-out: HBV RI EC50, Table 2, replicative intermediates (intracellular DNA), transfected Hep G-2 (2.2.15) cells) was greater than 10 µM, the EC50 (Hepatitis B virus [1]; Hepatitis B virus, HepG2 2.2.15, read-out: HBV Virion EC50, Table 2, extracellular DNA, transfected Hep G-2 (2.2.15) cells) was greater than 10 µM and the IC50 ([2]; Cytotoxicity IC50, Table 2, Hep G-2 (2.2.15) cells) was 1000 µM.
In the case of `Nc1ccn([C@@H]2CC[C@H](CO)O2)c(=O)n1` [β-L-DDC, 2′,3′-Dideoxy-β-L-cytidine], the “Inhibition of HBV replication (depression of HBV virion DNA and HBV RI), in words” value (Hepatitis B virus [1]) is reported as “potent inhibitors of HBV replication”, the “Selectivity Index IC50/EC90 RI” value (Hepatitis B virus [1]; Table 1) is reported as 274 and the “Selectivity Index IC50/EC90 Virion” value (Hepatitis B virus [1]; Table 1, cytotoxicity IC50 / virion EC90) is reported as 448. The EC50 (Hepatitis B virus [1]; Table 1, extracellular DNA, transfected HEPG-2 (2.2.15) cells, read-out: HBV viron EC50 ± SD) was 0.033 ± 0.003 µM, the EC90 (Hepatitis B virus [1]; Table 1, extracellular DNA, transfected HEPG-2 (2.2.15) cells, read-out: HBV viron EC90 ± SD) was 1.1 ± 0.2 µM and the EC50 (Hepatitis B virus [1]; Table 1, replicative intermediates (intracellular DNA), transfected HEPG-2 (2.2.15) cells, read-out: HBV RI EC50 ± SD) was 0.107 ± 0.012 µM. It also gave an EC90 (Hepatitis B virus [1]; Table 1, replicative intermediates (intracellular DNA), transfected HEPG-2 (2.2.15) cells, read-out: HBV RI EC90 ± SD) of 1.8 ± 0.2 µM and an IC50 [4] of 493 ± 64 µM.
For `Cc1cn([C@@H]2C[C@@H](N=[N+]=[N-])[C@H](COP(=O)(O)OP(=O)(O)OP(=O)(O)O)O2)c(=O)[nH]c1=O` [β-L-AZTPP], the IC50 [3] was 0.2 µM, the Ki (human DNA polymerase β) was greater than 100 µM and the Ki (human DNA polymerase α) was greater than 100 µM.
In the case of `Nc1ccn([C@H]2CC[C@@H](CO)O2)c(=O)n1` [β-D-DDC, β-D-2′,3′-dideoxycytidine, reference compound], the “Inhibition of HBV replication (depression of HBV virion DNA and HBV RI), in words” value (Hepatitis B virus [1]) is reported as “significant depressions of HBV DNA replication”, the EC90 (Hepatitis B virus [1]; Hepatitis B virus, HepG2 2.2.15, read-out: HBV RI EC90 ± SD, Table 1, replicative intermediates (intracellular DNA), transfected HEPG-2 (2.2.15) cells) is reported as 11 ± 2 µM and the EC50 (Hepatitis B virus [1]; Hepatitis B virus, HepG2 2.2.15, read-out: HBV viron EC50 ± SD, Table 1, extracellular DNA, transfected HEPG-2 (2.2.15) cells) is reported as 1.5 ± 0.7 µM. For the same molecule, the “Selectivity Index IC50/EC90 RI” value (Hepatitis B virus [1]; Table 1) was 20 and 18, the EC90 (Hepatitis B virus [1]; read-out: HBV RI EC90 ± SD, Table 1, replicative intermediates (intracellular DNA), transfected HEPG-2 (2.2.15) cells) was 12 ± 2.4 µM and the EC50 (Hepatitis B virus [1]; read-out: HBV viron EC50 ± SD, Table 1, extracellular DNA, transfected HEPG-2 (2.2.15) cells) was 1.3 µM. The IC50 [5] was 150 to 190 µM, the “Concentration giving a 90% depression of HBV RI” value (Hepatitis B virus [6]) was 9 to 12 µM and the IC50 ([2]; Cytotoxity IC50 ± SD, Table 1, neutral red dye uptake, 2.2.15 cells) was 216 ± 22 µM. For the same molecule, the IC50 [4] was 219 µM.

Reference: patent US7468357B2, “Nucleosides with anti-hepatitis B virus activity” (Emory University, priority 1994, dated 2008)
